Experimental data as given in patent US5053402A, “Certain glyceryl phosphate-cyclic ammonium compounds useful for treating hypertension” (Nippon Chemiphar Co., Ltd., priority 1986, dated 1991).
pEC50: −log10 of the molar value.

How the values were obtained:
blood pressure [1] = experiment: Blood Pressure Reducing Action: Intravenous Injection; type: in vivo, Male Wister rats; conditions: anesthetized rat; for ED (50 mmHg reduction): iv, from dose-response curve, read-out: MABP50 (dose required for reducing average blood pressure by 50 mmHg); for Reduction of Blood Pressure: i.v.
Experimental: Male Wister rats (mean body weight: 420 g) were anesthetized by intra-peritoneal injection of 50 mg/kg of pentobarbital sodium and were fixed on their backs, and their blood pressures were measured at left femoral artery. Subsequently, a compound to be tested was dissolved in a saline solution containing 0.25% bovine serum albumin and injected into the rat through the right femoral vein.
A dose-response curve was prepared from the above values to determine a dose required for reducing average blood pressure by 50 mmHg (MABP50). MABP50 for the above compound was 21 ng/kg.

platelet = experiment: Blood Platelet Agglutination Action; type: cell-based, male Japanese white rabbit; conditions: Oryctolagus cuniculus; for pEC50: from agglutination curve
Experimental: A male Japanese white rabbit was anesthetized by pentobarbital, and a blood was collected in aqueous 3.13% sodium citrate solution at its carotid. The blood containing 1/10 volume ratio of the sodium citrate solution was treated in a conventional manner to give a platelet rich plasma (PRP) and a platelet poor plasma (PPP) for performing the following experiment.
PRP was diluted with PPP to give a sample containing platelets at 300,000/mm^3.
Agglutination of platelet was determined by means of Platelet Aggregation Tracer PAT-4A(available from Niko Bioscience Co., Ltd., Japan). 10 μl of a test solution was added to 190 μl of PRP to give a final solution of 2×10^-10 to 2×10^-4 M, and an agglutination curve is recorded. For the preparation of the test solution, a saline solution containing 0.25% bovine serum albumin.
Agglutination of Platelet

blood pressure [2] = experiment: Blood Pressure Decreasing Action: Oral Administration; type: in vivo, Spontaneously hypertensive male rats; conditions: 10 mg/kg
Experimental: Spontaneously hypertensive male rates (average body weight: 359 g) were etherized and fixed on their backs. Blood pressure was measured for each rat through cannulation at its left femoral artery. A compound to be tested was dissolved in a distilled water and the resulting aqueous solution was administered orally.

| Structure (SMILES) | pEC50 (platelet; table) | ED (50 mmHg reduction) (blood pressure [1]) | Reduction of Blood Pressure (blood pressure [2]; after 30 min) | Reduction of Blood Pressure (blood pressure [2]; after 1 hr) | Reduction of Blood Pressure (blood pressure [2]; after 2 hrs) | Reduction of Blood Pressure (blood pressure [2]; after 3 hrs) | Reduction of Blood Pressure (blood pressure [2]; after 4 hrs) | Reduction of Blood Pressure (blood pressure [2]; after 5 hrs) | Reduction of Blood Pressure (blood pressure [2]; after 6 hrs) | also measured |
| --- | --- | --- | --- | --- | --- | --- | --- | --- | --- | --- |
| CCCCCCCCCCCCCCCCOC(C)C(COP(=O)([O-])OC1CC[N+](C)(C)C1)OC(C)=O (stereo not drawn) [Example 3, 2-Acetyloxy-3-hexadecyloxybutyl 1,1-dimethylpyrrolidinio-3-yl phosphate] | 6.40 | 8.5 µg/kg | -49.7 mmHg | -60.7 mmHg | -74.3 mmHg | -82.0 mmHg | -84.7 mmHg | -83.7 mmHg | -82.3 mmHg | – |
| CCCCCCCCCCCCCCCCOC(C)C(COP(=O)([O-])OC1CC[N+](C)(C)CC1)OC(C)=O (stereo not drawn) [Example 5, 2-Acetyloxy-3-hexadecyloxybutyl 1,1-dimethylpiperidinio-4-yl phosphate] | 6.20 | 8.6 µg/kg | +5.0 mmHg | 0 mmHg | -14.5 mmHg | -19.0 mmHg | -22.5 mmHg | -26.0 mmHg | -28.0 mmHg | – |
| CCCCCCCCCCCCCCCCOCC(COP(=O)([O-])OC1CC[N+](C)(C)C1)OC(C)=O (stereo not drawn) [Example 8, 2-Acetyloxy-3-hexadecyloxypropyl 1,1-dimethylpyrrolidinio-3-yl phosphate] | – | 0.021 µg/kg | – | – | – | – | – | – | – | Reduction of Blood Pressure (blood pressure [1]; 1 ng/kg): -4.5 ± 1.5 mmHg; Reduction of Blood Pressure (blood pressure [1]; 5 ng/kg): -21.5 ± 8.0 mmHg; Reduction of Blood Pressure (blood pressure [1]; 10 ng/kg): -47.5 ± 0.5 mmHg; Reduction of Blood Pressure (blood pressure [1]; 50 ng/kg): -52.6 ± 4.6 mmHg; Reduction of Blood Pressure (blood pressure [1]; 100 ng/kg): -67.0 ± 3.1 mmHg; activation at 2 µM (platelet; 2 × 10^-6 M, PRP = 0%, PPP = 100%): 86%; activation at 0.2 µM (platelet; 2 × 10^-7 M, PRP = 0%, PPP = 100%): 81%; activation at 0.02 µM (platelet; 2 × 10^-8 M, PRP = 0%, PPP = 100%): 67%; activation at 0.002 µM (platelet; 2 × 10^-9 M, PRP = 0%, PPP = 100%): 18%; activation at 0.0002 µM (platelet; 2 × 10^-10 M, PRP = 0%, PPP = 100%): 0%; pEC50 (platelet): 7.74 |
| CCCCCCCCCCCCCCCCOCC(OC(C)=O)C(OP(=O)([O-])OC1CC[N+](C)(C)C1)C(C)C (stereo not drawn) [Example 6, 2-Acetyloxy-3-hexadecyloxy-1-(1-methylethyl)-propyl 1,1-dimethylpyrrolidinio-3-yl phosphate] | 5.30 | 48 µg/kg | – | – | – | – | – | – | – | – |

More lines, in order of rising pEC50 (platelet; table), values ahead:

| pEC50 (platelet; table) | Structure (SMILES) | ED (50 mmHg reduction) (blood pressure [1]) | Reduction of Blood Pressure (blood pressure [2]; after 30 min) | Reduction of Blood Pressure (blood pressure [2]; after 1 hr) | Reduction of Blood Pressure (blood pressure [2]; after 2 hrs) | Reduction of Blood Pressure (blood pressure [2]; after 3 hrs) | Reduction of Blood Pressure (blood pressure [2]; after 4 hrs) | Reduction of Blood Pressure (blood pressure [2]; after 5 hrs) | Reduction of Blood Pressure (blood pressure [2]; after 6 hrs) | also measured |
| --- | --- | --- | --- | --- | --- | --- | --- | --- | --- | --- |
| 7.66 | CCCCCCCCCCCCCCCCOC(C)C(COP(=O)([O-])OC1CCC[N+](C)(C)C1)OC(C)=O (stereo not drawn) [Example 4, 2-Acetyloxy-3-hexadecyloxybutyl 1,1-dimethylpiperidinio-3-yl phosphate] | 0.34 µg/kg | -66.0 mmHg | -68.0 mmHg | -73.0 mmHg | -72.3 mmHg | -66.7 mmHg | -63.0 mmHg | -66.7 mmHg | – |
| 8.10 | CCCCCCCCCCCCCCCCOCC(COP(=O)([O-])OC1CC[N+](C)(C)CC1)OC(C)=O (stereo not drawn) [Example 2, 2-Acetyloxy-3-hexadecyloxypropyl 1,1-dimethylpiperidinio-4-yl phosphate] | 0.058 µg/kg | – | – | – | – | – | – | – | – |
| 9.22 | CCCCCCCCCCCCCCCCOCC(COP(=O)([O-])OC1CCC[N+](C)(C)C1)OC(C)=O (stereo not drawn) [Example 1, 2-Acetyloxy-3-hexadecyloxypropyl 1,1-dimethylpiperidinio-3-yl phosphate] | 0.013 µg/kg | – | – | – | – | – | – | – | – |
